Consider 11 molecules from ChEMBL document CHEMBL4017512 (J Med Chem, 2017).

In data set [1] the test system is HCT-116. Nature of the data set: Antiproliferative activity against human HCT116 cells. In kind it is functional, cell-based.
The nature of data set [2]: Cytotoxicity against human HCT116/VM46 cells assessed as reduction in cell viability. In kind it is cell-based. The following applies: HCT-116/VM46.
Data set [3] has as its system L1210. Nature of the data set: Antiproliferative activity against mouse L1210 cells. It counts as functional, cell-based.
A short description of data set [4]: Displacement of BODIPY-labeled vinblastine from tubulin (unknown origin) at 18 uM after 60 mins by fluorescence assay relative to control. To be noted: Homo sapiens.
Data set [5] deals with MDR1 (ABCB1, P-gp) ATPase (Homo sapiens, UniProt P08183). The data set is described as follows: Inhibition of MDR1 (unknown origin) ATPase activity expressed in sf9 cell membranes assessed as residual activity at 20 uM using ATP as substrate preincubated for 5 mins followed by substrate addition measured after 20 mins by spectrophotometric method relative to control. The following applies: Sf9 cell membranes expressing MDR1, probe ATP, read-out: Activity.

For data set [6], the system named is MDA-MB-468. The data set is described as follows: Antiproliferative activity against human MDA-MB-468 cells after 72 hrs by phosphatase assay. To be noted: MDA-MB-468, 72 h. It counts as functional, cell-based.
Data set [7] can be described thus: Apparent permeability from basolateral to apical side in human Caco2 cells. In kind it is ADME, cell-based. The following applies: Caco-2.
The test system of data set [8] is PA-1. The data set is described as follows: Antiproliferative activity against human PA1 cells after 72 hrs by phosphatase assay. In kind it is functional, cell-based. The following applies: PA-1, 72 h.
Data set [9] concerns LNCaP. The data set is described as follows: Antiproliferative activity against human LNCAP cells after 72 hrs by phosphatase assay. It counts as functional, cell-based.
Data set [10] has as its system L1210. Nature of the data set: Antiproliferative activity against mouse L1210 cells after 72 hrs by phosphatase assay. It counts as functional, cell-based. The following applies: L1210, 72 h.
Data set [11] is described as follows: Antiproliferative activity against human HCT116/VP35 cells after 72 hrs by phosphatase assay. In kind it is functional, cell-based. To be noted: HCT-116, 72 h.
Data set [12] concerns LS174T. Nature of the data set: Antiproliferative activity against human LS174T cells after 72 hrs by phosphatase assay. In kind it is functional, cell-based.
Data set [13] has as its system NCI-H520. Nature of the data set: Antiproliferative activity against human NCI-H520 cells after 72 hrs by phosphatase assay. It counts as functional, cell-based. The following applies: NCI-H520, 72 h.
Data set [14] in a line: Cytotoxicity against human HCT116/VM46 cells assessed as reduction in cell viability after 72 hrs by phosphatase assay. In kind it is cell-based. To be noted: HCT-116/VM46, 72 h.
The subject of data set [15] is HCT-116. The data set is described as follows: Antiproliferative activity against human HCT116 cells after 72 hrs by phosphatase assay. In kind it is functional, cell-based. The following applies: HCT-116, 72 h.

Molecules are shown by their SMILES. Some results are limits rather than exact numbers.

Sequence of MDR1 (ABCB1, P-gp) ATPase (P08183 whole entry): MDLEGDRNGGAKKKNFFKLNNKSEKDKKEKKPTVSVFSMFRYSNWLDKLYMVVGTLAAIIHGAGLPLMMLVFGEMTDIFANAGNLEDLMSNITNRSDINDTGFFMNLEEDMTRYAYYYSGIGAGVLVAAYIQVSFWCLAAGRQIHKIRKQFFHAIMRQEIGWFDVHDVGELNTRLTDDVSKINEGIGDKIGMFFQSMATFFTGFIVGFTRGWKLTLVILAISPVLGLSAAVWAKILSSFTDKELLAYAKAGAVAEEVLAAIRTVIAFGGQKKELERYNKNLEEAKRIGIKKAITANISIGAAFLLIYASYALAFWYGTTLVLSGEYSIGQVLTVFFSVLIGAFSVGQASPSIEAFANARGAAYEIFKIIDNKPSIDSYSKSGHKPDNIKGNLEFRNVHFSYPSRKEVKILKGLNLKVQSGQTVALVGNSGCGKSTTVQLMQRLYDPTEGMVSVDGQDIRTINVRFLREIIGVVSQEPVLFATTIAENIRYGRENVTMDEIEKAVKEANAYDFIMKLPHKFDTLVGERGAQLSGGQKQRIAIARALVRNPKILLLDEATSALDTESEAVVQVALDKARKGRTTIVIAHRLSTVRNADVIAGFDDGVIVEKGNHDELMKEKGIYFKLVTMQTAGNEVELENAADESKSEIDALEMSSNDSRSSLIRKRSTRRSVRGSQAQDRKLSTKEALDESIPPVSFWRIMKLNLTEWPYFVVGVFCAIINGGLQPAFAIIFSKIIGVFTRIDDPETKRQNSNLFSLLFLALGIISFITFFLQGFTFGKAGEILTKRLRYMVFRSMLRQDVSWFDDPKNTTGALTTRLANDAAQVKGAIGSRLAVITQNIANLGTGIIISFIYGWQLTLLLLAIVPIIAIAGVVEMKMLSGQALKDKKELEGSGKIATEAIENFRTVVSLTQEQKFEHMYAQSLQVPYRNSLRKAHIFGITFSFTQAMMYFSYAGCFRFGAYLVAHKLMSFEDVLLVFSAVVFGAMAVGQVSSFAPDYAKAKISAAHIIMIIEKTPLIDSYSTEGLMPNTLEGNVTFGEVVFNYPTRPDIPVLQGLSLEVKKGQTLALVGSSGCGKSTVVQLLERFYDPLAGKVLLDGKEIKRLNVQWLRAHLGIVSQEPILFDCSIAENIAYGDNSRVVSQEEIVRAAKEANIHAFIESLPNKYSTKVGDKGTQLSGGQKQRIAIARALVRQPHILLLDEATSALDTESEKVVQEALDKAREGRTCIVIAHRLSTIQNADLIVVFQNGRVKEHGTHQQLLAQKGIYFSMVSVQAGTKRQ

For `CC[C@]1(NC(=O)C(F)(F)F)C[C@H]2CN(CCc3c([nH]c4ccccc34)[C@@](C(=O)OC)(c3cc4c(cc3OC)N(C)[C@H]3[C@@](O)(C(=O)OC)[C@H](OC(C)=O)[C@]5(CC)C=CCN6CC[C@]43[C@@H]65)C2)C1`, the IC50 in data set [1] is 690 nM; in [2], 8100 nM; in data set [3], 660 nM.
Molecule `CC[C@]1(NC(=O)c2ccc3c(c2)CCCC3)C[C@H]2CN(CCc3c([nH]c4ccccc34)[C@@](C(=O)OC)(c3cc4c(cc3OC)N(C)[C@H]3[C@@](O)(C(=O)OC)[C@H](OC(C)=O)[C@]5(CC)C=CCN6CC[C@]43[C@@H]65)C2)C1` returned an inhibition in data set [4] of 63%. The activity at 20 min, 20 µM in data set [5] worked out at 0%. Also, the IC50 turned out to be 6.3 nM in [6]; 2.6 nM in [8]; 3.9 nM in data set [9]; 3.3 nM in [10]; 6.2 nM in data set [11]; 6.6 nM in data set [12]. Further, the values for the IC50 in [13], in data set [14] and in data set [15] were 1.8 nM, 8.7 to 14 nM and 4.9 nM, respectively. In addition, the Papp B→A in data set [7] was 2 ×10⁻⁶ cm/s.
`CC[C@]1(NC(=O)c2ccc3c(c2)CCCO3)C[C@H]2CN(CCc3c([nH]c4ccccc34)[C@@](C(=O)OC)(c3cc4c(cc3OC)N(C)[C@H]3[C@@](O)(C(=O)OC)[C@H](OC(C)=O)[C@]5(CC)C=CCN6CC[C@]43[C@@H]65)C2)C1` registered an inhibition in data set [4] of 98%. The IC50 was determined as 1.2 nM in data set [6]; 1 nM in data set [8]; 0.8 nM in [9]; 0.4 nM in data set [10]; 1.4 nM in data set [11]; 2.4 nM in [12]. In addition, the figures for the IC50 in [13], in data set [14] and in [15] were 0.8 nM, 1.8 to 4.9 nM and 0.5 to 0.7 nM, respectively.
Regarding `CC[C@]1(O)C[C@@H]2CN(CCc3c([nH]c4ccccc34)[C@@](C(=O)OC)(c3cc4c(cc3OC)N(C)[C@H]3[C@@](O)(C(=O)OC)[C@H](OC(C)=O)[C@]5(CC)C=CCN6CC[C@]43[C@@H]65)C2)C1` [VINBLASTINE], in [4], the inhibition was in the range of 50 to 61%. Besides, the activity at 20 min, 20 µM in data set [5] was 87%. Besides, the IC50 in [6] is 14 nM; in data set [9], 5.1 nM; in data set [11], 37 nM; in data set [12], 20 nM; in data set [14], 110 to 600 nM. For the same molecule, in data set [7], the Papp B→A was 38.2 ×10⁻⁶ cm/s.
For `CC[C@]1(NC(C)=O)C[C@H]2CN(CCc3c([nH]c4ccccc34)[C@@](C(=O)OC)(c3cc4c(cc3OC)N(C)[C@H]3[C@@](O)(C(=O)OC)[C@H](OC(C)=O)[C@]5(CC)C=CCN6CC[C@]43[C@@H]65)C2)C1`, the IC50 in data set [2] was 7500 nM; in data set [3], 65 nM.
On to `CC[C@]1(NC(=O)c2ccccc2)C[C@H]2CN(CCc3c([nH]c4ccccc34)[C@@](C(=O)OC)(c3cc4c(cc3OC)N(C)[C@H]3[C@@](O)(C(=O)OC)[C@H](OC(C)=O)[C@]5(CC)C=CCN6CC[C@]43[C@@H]65)C2)C1`, for which the inhibition in data set [4] was 72%. The IC50 in data set [10] amounted to 1.1 nM; in [14] it was 20 nM; in data set [15], 0.8 nM.
As for `CC[C@]1(NC(=O)c2ccc(C)c(C)c2)C[C@H]2CN(CCc3c([nH]c4ccccc34)[C@@](C(=O)OC)(c3cc4c(cc3OC)N(C)[C@H]3[C@@](O)(C(=O)OC)[C@H](OC(C)=O)[C@]5(CC)C=CCN6CC[C@]43[C@@H]65)C2)C1`, in [4], the inhibition was determined as 67%. The IC50 was determined as 4.8 nM in data set [6]; 2.3 nM in data set [8]; 3 nM in data set [9]; 3 nM in data set [10]; 5.8 nM in data set [11]; 6.1 nM in data set [12]. Moreover, the IC50 was 1.4 nM in [13], 7.6 to 9 nM in [14] and 4.5 to 4.6 nM in data set [15].
Take `CC(=O)O[C@H]1C(=O)[C@@]2(C)[C@H]([C@H](OC(=O)c3ccccc3)[C@]3(O)C[C@H](OC(=O)[C@H](O)[C@@H](NC(=O)c4ccccc4)c4ccccc4)C(C)=C1C3(C)C)[C@]1(OC(C)=O)CO[C@@H]1C[C@@H]2O` [PACLITAXEL]: the IC50 in data set [6] was found to be 5.4 nM; in data set [8] it was 3 nM; in [9] it was 1.9 nM; in [11], 6.3 nM; in [12], 9.5 nM; in data set [13] it was 8.2 nM. For the same molecule, the values for the IC50 in [14] and in data set [15] were > 200 nM and 4.1 nM, respectively.
In the case of `CC[C@]1(NC(=O)c2ccc(N(C)C)cc2)C[C@H]2CN(CCc3c([nH]c4ccccc34)[C@@](C(=O)OC)(c3cc4c(cc3OC)N(C)[C@H]3[C@@](O)(C(=O)OC)[C@H](OC(C)=O)[C@]5(CC)C=CCN6CC[C@]43[C@@H]65)C2)C1`, in data set [4], the inhibition came out at 88%. The IC50 in [10] was 0.18 nM; in data set [14], 4.1 nM.
Turning to `CC[C@]1(NC=O)C[C@H]2CN(CCc3c([nH]c4ccccc34)[C@@](C(=O)OC)(c3cc4c(cc3OC)N(C)[C@H]3[C@@](O)(C(=O)OC)[C@H](OC(C)=O)[C@]5(CC)C=CCN6CC[C@]43[C@@H]65)C2)C1`, the IC50 in data set [2] turned out to be 6500 nM; in data set [3], 65 nM.
In [4], `CC[C@]1(NC(=O)c2ccc(C#N)cc2)C[C@H]2CN(CCc3c([nH]c4ccccc34)[C@@](C(=O)OC)(c3cc4c(cc3OC)N(C)[C@H]3[C@@](O)(C(=O)OC)[C@H](OC(C)=O)[C@]5(CC)C=CCN6CC[C@]43[C@@H]65)C2)C1` showed an inhibition of 56%. The IC50 in [10] stood at 4.4 nM; in [14], 60 nM; in data set [15] it was 3.1 nM.
